Several values for one entry are separate records, joined by “and”; a condition that tells them apart may be missing. Equal values may be shown once. Read-outs that look alike come from different tables or passages of the source.
Assays:
canine prostate [1] = conditions: for lesion volume: 1 cm porous segment, 2 h after injection
Experimental: Intraprostatic ethanol injections were performed in eight Beagle dogs for acute experiments. Animals received premedication with medetomidin (0.004 mg/kg), metadon (0.3 mg/kg), and acepromazil (0.02 mg/kg). Anesthesia was induced with propofol (1.5-2 mg/kg) and maintained by propofol (10 mg/kg/hour) and fentanyl (0.24 mg/kg/hour). Prostate exposure was performed using lower midline abdominal incisions and blunt dissection of surrounding tissues. The porous needle was stabilized with a fixation apparatus attached to the operating table and was deployed with a protective sheath in the lateral lobe of the prostate. […] Where possible, the distal end of the sheath was kept at least 2 mm from the pseudocapsule. […] Injections in both lateral lobes of each canine were performed. […] In the remaining experiments, 0.5, 1, 1.5, or 2 ml was injected into each prostatic lobe. In five experiments, a needle with a 1 cm long microporous segment was used, while a 2 cm long segment was used in one experiment. The tissue resistance during injections was measured by including the pressure transduced between the pump and the needle. Two hours following the second injection, the animals were anaesthetised by an intramuscular injection of medetomidine and ketamine, followed by intravenous injection of pentobarbital, and euthanized using exsanguination.
Histology slides were converted to digital images.

human prostate = test: Transperineal intraprostatic EtOH injection in heart-beating cadaveric organ donors; conditions: for average volume of the lesion: five human prostates, 1 cm porous segment
canine prostate [2] = test: Chronic canine experiment: intraprostatic EtOH injection, four weeks observation, autopsy and histology

CCO [EtOH, ethanol]
lesion volume (canine prostate [1]; 0.5 ml EtOH injected per lobe): 208±58 mm^3
lesion volume (canine prostate [1]; 1.0 ml EtOH injected per lobe): 588±112 mm^3
lesion volume (canine prostate [1]; 1.5 ml EtOH injected per lobe): 791±338 mm^3
tissue infiltration with 2 cm porous segment needle (canine prostate [1]; 2 cm porous segment compared with 1 cm): larger areas of tissue infiltration
lesion volume (canine prostate [1]; 2.0 ml EtOH injected per lobe): 1158±200 mm^3
necrotic areas, share of the section (canine prostate [1]; canine prostate section, FIG. 4): more than 80%
extraprostatic leak during injection (canine prostate [1]; dog, in vivo): No extraprostatic leak
prostatic pseudocapsule integrity (canine prostate [1]; dog, in vivo): remained intact without evidence of disruption
average volume of the lesion (human prostate; 2 ml injected per lobe): 0.978 mL
average volume of the lesion (human prostate; 3 ml injected per lobe): 1.742 mL
lesion size with 3 ml relative to 2 ml (human prostate; average, human prostates): 1.78 ×
extraprostatic tissue injury (human prostate; human prostates): no evidence to the extraprostatic tissue injury was observed
lesion localization (human prostate; human prostates): In all cases the lesion was localized within the prostate
prostatic capsule integrity (human prostate; human prostates): remained intact
transient increase in body temperature (canine prostate [2]; animals with wound swelling, lasted less than 24 hours): 38.5 °C and 39 °C
extraprostatic leak during injection (canine prostate [2]; chronic study): free of exptraprostatic leak
immediate complications (canine prostate [2]; chronic study): No immediate complications occurred
long-term complications (canine prostate [2]; chronic study, four weeks observation): swelling of the wound in two animals and serous exudation in one animal
damage to adjacent structures at prostatectomy (canine prostate [2]; four weeks after injection): no damage to adjacent structures
tissue defects on whole mount sections (canine prostate [2]; four weeks after injection, H&E): tissue defects (cavities) in all prostatic lobes injected with 1, 1.5, and 2 ml
prostatic pseudocapsule area (canine prostate [2]; four weeks after injection, histology): showed no abnormalities

From patent publication US20250058082A1, “TRANSPERINEAL, TRANSRECTAL OR TRANSURETHRAL ADMINISTRATION OF ANTI-PROSTATE CANCER AGENTS FOR TREATING PROSTATE CANCER” (JESSENIUS FACULTY OF MEDICINE OF COMENIUS UNIVERSITY IN …, priority 2021, published 2025)
